According to patent US20140242707A1, “Compositions and Methods for Diagnosing Hypercoagulability and Hypocoagulability” (Philadelphia Health & Education Corporation d/b/a Drexel …, priority 2011, published 2014):

Experiments:
horse plasma [1] = test: Thrombelastography of horse plasma, coagulation and fibrinolysis study (with tPA); format: biochemical; conditions: for % TTG Loss / MRL / MRTG / TMRL / TMRTG / TTG / CGT / CLS / CLT: CORM-2 100 μM
Experimental: (§1) Blood was collected directly into plastic tubes containing 0.105 M sodium citrate (9:1, v/v) from the jugular vein of ten clinically normal grade and American Quarter Horse mares between 400 and 600 kg. Three additional horses to be subsequently described with acute gastrointestinal disease had blood samples similarly collected. The mares were group-housed in corrals. Plasma was obtained by centrifugation of citrated whole blood at 3000×g for 15 minutes and immediately frozen at −80° C. Plasma was subsequently shipped on dry ice and stored at −80° C. until thrombelastographic analysis.
In the second series of experiments assessing both coagulation and fibrinolysis, sample composition consisted of 316 μl of plasma; 10 μl of tissue factor reagent (0.1% final concentration), 10 μl of tissue type plasminogen activator (tPA, 580 Genentech, Inc., San Francisco, Calif., USA; 300 IU/ml final concentration); 3.6 μl of dH2O, or 3.6 μl dH2O containing PHA (10 mM final concentration), or 3.6 μl of CORM-2 (100 μM final concentration) and 20 μl of 200 mM CaCl2. The effects of converting heme groups to either a carboxyheme or metheme in horse plasma during clot growth and fibrinolysis were assessed as subsequently described.
(§2) Plasma sample mixtures were placed in a disposable cup in a computer-controlled Thrombelastograph® hemostasis system (Model 5000, Haemoscope Corp., Niles, Ill., USA), with addition of CaCl2 as the last step to initiate clotting. Data were collected at 37° C. for 15 min in the first series of experiments involving coagulation alone, whereas in the experiments involving fibrinolysis data were collected until clot lysis time was observed. Elastic modulus-based parameters previously described were determined (Nielsen et al., 2009, Blood Coagul Fibrinolysis, 20: 377-380; Nielsen et al., 2009, Blood Coagul Fibrinolysis, 20: 448-455). The nomenclature used to describe these phenomena is as follows:
(§3) Time to maximum rate of thrombus generation (TMRTG): This is the time interval (min) observed prior to maximum speed of clot growth.
(§4) Maximum rate of thrombus generation (MRTG): This is the maximum velocity of clot growth observed (dynes/cm^2/sec).
(§5) Total Thrombus Generation (TTG): This is the total area under the velocity curve during clot growth (dynes/cm^2), representing the amount of clot strength generated during clot growth.
Time to maximum rate of lysis (TMRL): This is the time interval (min) measured from the time of maximum strength to the time when the velocity of clot disintegration is maximal.
Maximum Rate of Lysis (MRL): This is the maximum velocity of clot disintegration observed (-dynes/cm^2/sec).
Clot growth time (CGT): This is the time from clot amplitude of 2 mm [102 dynes/cm^2] until maximum strength is achieved, in min.
Clot lifespan (CLS): This is the sum of CGT and CLT.
(§6) Thrombelastographic data are presented as mean±SD or as individual animal parameter values as appropriate. The effects of addition of CORM-2 and PHA on coagulation and fibrinolytic kinetic parameters were analyzed with one way repeated measures analysis of variance, utilizing Holm-Sidak post hoc test (SigmaStat 3.1, Systat Software, Inc., San Jose, Calif., USA) as appropriate. A P value of <0.05 was considered significant.

horse plasma [2] = test: Thrombelastography of horse plasma, coagulation study (no tPA); format: biochemical; set-up: increase in TTG vs control / decrease in MRTG vs control / decrease in TTG vs control / decrease in MRTG vs control sample / decrease in TTG vs control sample / increase in MRTG vs control sample / increase in TTG vs control sample: concentration or dose not given beside the values; conditions: for MRTG / TMRTG / TTG / MA / R / α: PHA 10 mM, CORM-2 100 μM
Experimental: as §1
The final volume for all subsequently described plasma sample mixtures was 359.6 μl. Sample composition for this series of experiments consisted of 326 μl of plasma; 10 μl of tissue factor reagent (0.1% final concentration in dH2O; Diagnostica Stago S.A.S., Asnieres sur Seine, France); 3.6 μl of dH2O, or 3.6 μl dH2O containing the heme-binding reductant phenylhydroxylamine (PHA, 10 mM final concentration, Sigma-Aldrich, Saint Louis, Mo., USA), or 3.6 μl of dimethyl sulfoxide with CORM-2 (100 μM final concentration; Sigma-Aldrich, Saint Louis, Mo., USA); and 20 μl of 200 mM CaCl2. As previously described in human plasma (McMichael et al., 2011, Blood Coagul Fibrinolysis, 22: 424-430), this diagnostic panel is designed to determine hemostatic kinetic changes following of formation of carboxyhemefibrinogen (Fe^+2 state) after exposure to CO released from CORM-2 and to determine the effects of formation of methemefibrinogen (Fe^+3 state) after exposure to PHA. The relative change from baseline kinetics caused by exposure to CORM-2 and PHA allow determination of the balance between oxy/carboxy/methemefibrinogen concentrations in human plasma (McMichael et al., 2011, Blood Coagul Fibrinolysis, 22: 424-430).
as §2, §3, §4, §5, §6

[3] = horse with lethal enteritis, tPA
[4] = horse with mild disease, tPA, PHA 10 mM
[5] = horse with moderate disease, tPA, PHA 10 mM
[6] = horse with moderate enteritis, tPA
[7] = normal horses, tPA 300 IU/ml, PHA 10 mM
[8] = horse with lethal disease, no tPA
[9] = horse with lethal enteritis, no tPA
[10] = horse with mild disease, no tPA
[11] = horse with mild enteritis, no tPA
[12] = horse with moderate disease, no tPA
[13] = horse with moderate enteritis, no tPA

## [C-]#[O+].[C-]#[O+].[C-]#[O+].[C-]#[O+].[C-]#[O+].[C-]#[O+].[Cl][Ru][Cl].[Cl][Ru][Cl] [CORM-2, tricarbonyldichlororuthenium (II) dimer]
Horse plasma [1]; horse with lethal disease, tPA
  % TTG Loss: 67.4%
  MRL: 0.1 -dynes/cm^2/sec
  MRTG: 2.8 dynes/cm^2/sec
  TMRL: 65.2 min
  TMRTG: 4.1 min
  TTG: 92 dynes/cm^2
Horse plasma [1]; [3]
  effect on MRL vs control sample: did not affect
  increase in MRTG vs control sample: 12%
  increase in TMRL vs control sample: 8 fold
  increase in TTG vs control sample: 73%
Horse plasma [1]; [4]
  % TTG Loss: 50.7%
  MRL: 0.2 -dynes/cm^2/sec
  MRTG: 6.8 dynes/cm^2/sec
  TMRL: 122.8 min
  TMRTG: 3.2 min
  TTG: 274 dynes/cm^2
Horse plasma [1]; horse with mild enteritis, tPA
  decrease in MRL vs control sample: 88%
  decrease in MRTG vs control sample: 3%
  increase in TMRL vs control sample: 46 fold
  increase in TTG vs control sample: 77%
Horse plasma [1]; [5]
  % TTG Loss: 25.8%
  MRL: 0.4 -dynes/cm^2/sec
  MRTG: 7.2 dynes/cm^2/sec
  TMRL: 62.9 min
  TMRTG: 2.5 min
  TTG: 198 dynes/cm^2
Horse plasma [1]; [6]
  decrease in MRL vs control sample: 83%
  increase in MRTG vs control sample: 38%
  increase in TMRL vs control sample: 55 fold
  increase in TTG vs control sample: 160%
Horse plasma [1]; normal horses, tPA
  decrease in CGT vs control: 26%
  decrease in CLS (clot lifespan) vs control: 77%
  decrease in CLT vs control: 83%
  decrease in MRL vs control: 27%
  increase (prolongation) in TMRL vs control: 113%
  increase in CGT vs control: 106%
  increase in CLS vs control: 154%
  increase in CLT vs control: 160%
  increase in TTG vs control: 35%
Horse plasma [1]; [7]
  CGT: 6.4 ± 1.7 min
  CLS: 77.1 ± 23.8
  CLT: 70.6 ± 23.0 min
  MRL: 1.1 ± 0.5 -dynes/cm^2/sec
  MRTG: 13.2 ± 3.4 dynes/cm^2/sec
  TMRL: 26.2 ± 17.3 min
  TMRTG: 2.7 ± 0.4 min
  TTG: 312 ± 70 dynes/cm^2
Horse plasma [2]; [8]
  MRTG: 5.0 dynes/cm^2/sec
  TMRTG: 3.7 min
  TTG: 126 dynes/cm^2
Horse plasma [2]; [9]
  increase in MRTG vs control sample: 67%
  increase in TTG vs control sample: 97%
Horse plasma [2]; [10]
  MRTG: 10.2 dynes/cm^2/sec
  TMRTG: 2.9 min
  TTG: 308 dynes/cm^2
Horse plasma [2]; [11]
  increase in MRTG vs control sample: 16%
  increase in TTG vs control sample: 25%
Horse plasma [2]; [12]
  MRTG: 9.1 dynes/cm^2/sec
  TMRTG: 2.4 min
  TTG: 238 dynes/cm^2
Horse plasma [2]; [13]
  increase in MRTG vs control sample: 28%
  increase in TTG vs control sample: 47%
Horse plasma [2]; normal horses, no tPA
  increase in TTG vs control: 9%
Horse plasma [2]; normal horses
  MA: 40.4 ± 3.4
  MRTG: 13.0 ± 2.9 dynes/cm^2/sec
  R: 2.0 ± 0.4
  TMRTG: 2.8 ± 0.5 min
  TTG: 342 ± 48 dynes/cm^2
  α: 80.2 ± 2.1

## ONc1ccccc1 [PHA, phenylhydroxylamine]
Horse plasma [1]; [4]
  % TTG Loss: 100%
  MRL: 2.6 -dynes/cm^2/sec
  MRTG: 4.0 dynes/cm^2/sec
  TMRL: 2.4 min
  TMRTG: 3.4 min
  TTG: 100 dynes/cm^2
Horse plasma [1]; horse with mild enteritis, tPA
  decrease in MRTG vs control sample: 42%
  decrease in TTG vs control sample: 28%
  difference in TMRL between control and exposed sample: 8%
  increase in MRL vs control sample: 53%
Horse plasma [1]; [5]
  % TTG Loss: 100%
  MRL: 2.3 -dynes/cm^2/sec
  MRTG: 4.5 dynes/cm^2/sec
  TMRL: 2.8 min
  TMRTG: 2.8 min
  TTG: 94 dynes/cm^2
Horse plasma [1]; [6]
  change in MRL vs control sample: essentially no change
  decrease in MRTG vs control sample: 13%
  increase in TMRL vs control sample: 64%
  increase in TTG vs control sample: 23%
Horse plasma [1]; normal horses, tPA
  decrease in CLS (clot lifespan) vs control: 77%
  decrease in MRTG vs control: 55%
  decrease in TMRL vs control: 84%
  increase in MRL vs control: 133%
Horse plasma [1]; [7]
  CGT: 2.3 ± 0.5 min
  CLS: 6.9 ± 1.4
  CLT: 4.6 ± 1.3 min
  MRL: 3.5 ± 0.8 -dynes/cm^2/sec
  MRTG: 5.6 ± 1.3 dynes/cm^2/sec
  TMRL: 2.0 ± 0.2 min
  TMRTG: 3.2 ± 0.6 min
  TTG: 118 ± 26 dynes/cm^2
Horse plasma [2]; [8]
  MRTG: 0.1 dynes/cm^2/sec
  TMRTG: 8.2 min
  TTG: 2 dynes/cm^2
Horse plasma [2]; [9]
  effect on coagulation: essentially extinguished coagulation
Horse plasma [2]; [10]
  MRTG: 4.8 dynes/cm^2/sec
  TMRTG: 3.9 min
  TTG: 177 dynes/cm^2
Horse plasma [2]; [11]
  decrease in MRTG vs control sample: 45%
  decrease in TTG vs control sample: 28%
Horse plasma [2]; [12]
  MRTG: 3.9 dynes/cm^2/sec
  TMRTG: 3.5 min
  TTG: 126 dynes/cm^2
Horse plasma [2]; [13]
  decrease in MRTG vs control sample: 45%
  decrease in TTG vs control sample: 22%
Horse plasma [2]; normal horses, no tPA
  decrease in MRTG vs control: 54%
  decrease in TTG vs control: 47%
Horse plasma [2]; normal horses
  MA: 24.6 ± 2.7
  MRTG: 6.2 ± 1.7 dynes/cm^2/sec
  R: 2.4 ± 0.4
  TMRTG: 3.4 ± 0.6 min
  TTG: 166 ± 23 dynes/cm^2
  α: 71.7 ± 3.6
